Measured values published in US20260041620A1, “NOVEL AMINO ACID BASED SALTS, COMPOSITIONS AND METHODS FOR TREATING SKIN AND IMPROVING SKIN REJUVENATION AND LONGEVITY” (Sytheon Ltd, priority 2023, published 2026).
Where two headings read alike, the source gives them in different places.

What was measured:
HDAC 9 = HDAC 9 (Homo sapiens, UniProt Q9UKV0)
Experimental: (§1) Test materials were stored at room temperature and stock solutions were prepared at 20 mg/ml in DMSO. Further dilutions were made in sterile distilled water immediately before being added to the reaction mixture containing a substrate, and the reaction was triggered by the addition of purified HDAC enzymes, Double distilled water was the negative control and trichostatin (1.5 ug/ml) was used as a positive control for validation of each study. The test procedure was as directed in the assay kits. The products of the reactions were measured by fluorometry at ex/em 350/450 nm using multi-well plate fluorometer Cytofluor 4000 (Applied Biosystem, Foster City, CA) or using SpectraMax i3× Multi-Mode Detection Platform from Molecular Devices (Sunnyvale, CA).
(§2) Statistical significance was assessed with a two-tail Student test. Deviations of ≤20% as compared to water control with p values below 0.05 were considered statistically significant.

HDAC 8 = molecular target: T1, HDAC 8 (Homo sapiens, UniProt Q9BY41)
T1 sequence (Q9BY41 1-377): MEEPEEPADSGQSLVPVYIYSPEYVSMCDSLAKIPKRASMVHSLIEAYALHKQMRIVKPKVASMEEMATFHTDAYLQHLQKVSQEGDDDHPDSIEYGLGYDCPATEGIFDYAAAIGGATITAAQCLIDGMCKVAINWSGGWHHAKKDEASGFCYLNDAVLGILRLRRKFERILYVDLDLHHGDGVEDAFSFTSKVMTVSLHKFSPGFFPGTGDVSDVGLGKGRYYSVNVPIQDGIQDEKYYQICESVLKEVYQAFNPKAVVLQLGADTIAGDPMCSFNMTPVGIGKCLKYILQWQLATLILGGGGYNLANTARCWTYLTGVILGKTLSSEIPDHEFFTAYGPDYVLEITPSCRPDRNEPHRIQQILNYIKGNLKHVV
Experimental: as §1, §2

HDAC 5 = HDAC 5 (Homo sapiens, UniProt Q9UQL6)
Sequence of HDAC 5 (Q9UQL6 whole entry): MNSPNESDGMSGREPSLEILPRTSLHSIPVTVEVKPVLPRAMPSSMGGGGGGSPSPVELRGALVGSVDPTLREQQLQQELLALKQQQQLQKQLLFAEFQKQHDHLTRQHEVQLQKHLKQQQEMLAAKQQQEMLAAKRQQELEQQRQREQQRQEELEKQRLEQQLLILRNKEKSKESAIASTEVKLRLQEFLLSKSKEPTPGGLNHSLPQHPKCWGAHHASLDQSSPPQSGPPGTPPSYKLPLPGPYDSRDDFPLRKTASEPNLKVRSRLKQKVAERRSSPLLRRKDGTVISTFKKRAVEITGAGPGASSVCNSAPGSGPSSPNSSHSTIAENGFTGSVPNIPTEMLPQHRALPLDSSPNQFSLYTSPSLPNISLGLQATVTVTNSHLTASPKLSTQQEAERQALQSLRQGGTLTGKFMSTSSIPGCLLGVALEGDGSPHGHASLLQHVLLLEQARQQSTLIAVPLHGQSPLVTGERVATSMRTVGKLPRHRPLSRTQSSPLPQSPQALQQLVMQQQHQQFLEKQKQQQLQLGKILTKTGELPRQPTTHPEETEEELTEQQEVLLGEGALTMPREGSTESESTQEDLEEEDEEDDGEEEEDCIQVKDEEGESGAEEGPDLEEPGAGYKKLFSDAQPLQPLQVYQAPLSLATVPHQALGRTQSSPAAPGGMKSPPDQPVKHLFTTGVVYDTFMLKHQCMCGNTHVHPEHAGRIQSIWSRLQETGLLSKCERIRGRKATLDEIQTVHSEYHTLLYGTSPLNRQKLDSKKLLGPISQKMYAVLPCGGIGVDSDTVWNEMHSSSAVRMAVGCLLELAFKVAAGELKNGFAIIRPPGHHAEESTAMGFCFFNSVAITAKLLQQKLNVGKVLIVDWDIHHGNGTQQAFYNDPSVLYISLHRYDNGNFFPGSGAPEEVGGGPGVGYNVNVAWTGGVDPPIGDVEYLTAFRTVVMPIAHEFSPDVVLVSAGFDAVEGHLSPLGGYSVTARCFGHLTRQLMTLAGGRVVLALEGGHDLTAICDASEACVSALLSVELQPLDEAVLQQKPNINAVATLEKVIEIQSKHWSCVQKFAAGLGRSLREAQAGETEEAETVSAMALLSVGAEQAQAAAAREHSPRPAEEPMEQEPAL
Experimental: as §1, §2

FABP-3 = molecular target: T2, FABP-3 (Homo sapiens, UniProt P05413); assay: FABP-3 ELISA inhibitory assay; assay type: biochemical
T2 construct: purchased Neovateinbio PT-452
T2 sequence (P05413 whole entry): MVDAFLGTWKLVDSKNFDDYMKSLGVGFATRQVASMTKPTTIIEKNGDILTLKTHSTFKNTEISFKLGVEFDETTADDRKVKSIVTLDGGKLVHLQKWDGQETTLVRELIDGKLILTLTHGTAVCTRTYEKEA

HDAC7 = molecular target: T3, HDAC7 (Homo sapiens, UniProt Q8WUI4)
T3 sequence (Q8WUI4 1-952): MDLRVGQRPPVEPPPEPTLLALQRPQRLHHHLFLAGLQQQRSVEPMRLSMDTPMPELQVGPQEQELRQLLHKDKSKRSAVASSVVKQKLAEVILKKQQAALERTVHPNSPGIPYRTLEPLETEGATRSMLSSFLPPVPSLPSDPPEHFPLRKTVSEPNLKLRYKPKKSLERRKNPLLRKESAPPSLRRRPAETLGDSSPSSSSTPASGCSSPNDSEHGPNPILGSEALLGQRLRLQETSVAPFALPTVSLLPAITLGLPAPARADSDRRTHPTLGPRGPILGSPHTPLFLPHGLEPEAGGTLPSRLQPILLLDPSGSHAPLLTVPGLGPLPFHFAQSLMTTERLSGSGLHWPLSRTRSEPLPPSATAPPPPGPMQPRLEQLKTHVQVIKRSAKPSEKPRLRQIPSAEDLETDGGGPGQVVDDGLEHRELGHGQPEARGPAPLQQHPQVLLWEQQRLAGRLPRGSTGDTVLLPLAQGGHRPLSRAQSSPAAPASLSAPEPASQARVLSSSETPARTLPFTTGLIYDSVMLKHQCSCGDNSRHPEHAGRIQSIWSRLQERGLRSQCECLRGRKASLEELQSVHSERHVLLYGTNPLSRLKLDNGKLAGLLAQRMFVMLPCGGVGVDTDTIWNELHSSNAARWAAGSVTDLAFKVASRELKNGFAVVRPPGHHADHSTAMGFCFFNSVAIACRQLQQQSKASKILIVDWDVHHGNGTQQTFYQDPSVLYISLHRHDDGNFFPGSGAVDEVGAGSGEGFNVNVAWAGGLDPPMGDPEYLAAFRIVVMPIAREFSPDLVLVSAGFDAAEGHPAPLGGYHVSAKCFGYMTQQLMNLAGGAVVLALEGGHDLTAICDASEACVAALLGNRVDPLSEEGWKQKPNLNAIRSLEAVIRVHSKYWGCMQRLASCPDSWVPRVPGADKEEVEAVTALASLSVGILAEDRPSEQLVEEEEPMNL
Experimental: as §1, §2

HDAC10 = molecular target: T4, HDAC10 (Homo sapiens, UniProt Q969S8)
T4 sequence (Q969S8 1-669): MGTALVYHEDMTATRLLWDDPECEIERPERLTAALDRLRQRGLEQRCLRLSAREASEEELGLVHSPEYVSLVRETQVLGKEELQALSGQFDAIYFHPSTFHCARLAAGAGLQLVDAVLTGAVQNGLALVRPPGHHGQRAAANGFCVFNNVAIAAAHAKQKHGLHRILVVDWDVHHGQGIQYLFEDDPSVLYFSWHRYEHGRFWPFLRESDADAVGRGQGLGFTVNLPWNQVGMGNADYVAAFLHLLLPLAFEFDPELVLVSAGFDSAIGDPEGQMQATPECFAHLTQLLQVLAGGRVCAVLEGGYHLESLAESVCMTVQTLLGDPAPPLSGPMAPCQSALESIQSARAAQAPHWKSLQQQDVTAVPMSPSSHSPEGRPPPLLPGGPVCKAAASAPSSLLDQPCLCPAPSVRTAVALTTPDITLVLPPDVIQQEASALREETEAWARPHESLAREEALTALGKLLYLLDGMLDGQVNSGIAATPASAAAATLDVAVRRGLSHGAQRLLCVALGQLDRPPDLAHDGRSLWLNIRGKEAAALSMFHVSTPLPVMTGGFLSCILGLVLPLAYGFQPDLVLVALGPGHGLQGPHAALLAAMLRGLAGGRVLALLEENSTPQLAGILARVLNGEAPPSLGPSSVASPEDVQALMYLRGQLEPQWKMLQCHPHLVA
Experimental: as §1, §2

HDAC 4 = HDAC 4 (Homo sapiens, UniProt P56524); assay: HDAC 4 fluorogenic assay kit
Sequence of HDAC 4 (P56524 whole entry): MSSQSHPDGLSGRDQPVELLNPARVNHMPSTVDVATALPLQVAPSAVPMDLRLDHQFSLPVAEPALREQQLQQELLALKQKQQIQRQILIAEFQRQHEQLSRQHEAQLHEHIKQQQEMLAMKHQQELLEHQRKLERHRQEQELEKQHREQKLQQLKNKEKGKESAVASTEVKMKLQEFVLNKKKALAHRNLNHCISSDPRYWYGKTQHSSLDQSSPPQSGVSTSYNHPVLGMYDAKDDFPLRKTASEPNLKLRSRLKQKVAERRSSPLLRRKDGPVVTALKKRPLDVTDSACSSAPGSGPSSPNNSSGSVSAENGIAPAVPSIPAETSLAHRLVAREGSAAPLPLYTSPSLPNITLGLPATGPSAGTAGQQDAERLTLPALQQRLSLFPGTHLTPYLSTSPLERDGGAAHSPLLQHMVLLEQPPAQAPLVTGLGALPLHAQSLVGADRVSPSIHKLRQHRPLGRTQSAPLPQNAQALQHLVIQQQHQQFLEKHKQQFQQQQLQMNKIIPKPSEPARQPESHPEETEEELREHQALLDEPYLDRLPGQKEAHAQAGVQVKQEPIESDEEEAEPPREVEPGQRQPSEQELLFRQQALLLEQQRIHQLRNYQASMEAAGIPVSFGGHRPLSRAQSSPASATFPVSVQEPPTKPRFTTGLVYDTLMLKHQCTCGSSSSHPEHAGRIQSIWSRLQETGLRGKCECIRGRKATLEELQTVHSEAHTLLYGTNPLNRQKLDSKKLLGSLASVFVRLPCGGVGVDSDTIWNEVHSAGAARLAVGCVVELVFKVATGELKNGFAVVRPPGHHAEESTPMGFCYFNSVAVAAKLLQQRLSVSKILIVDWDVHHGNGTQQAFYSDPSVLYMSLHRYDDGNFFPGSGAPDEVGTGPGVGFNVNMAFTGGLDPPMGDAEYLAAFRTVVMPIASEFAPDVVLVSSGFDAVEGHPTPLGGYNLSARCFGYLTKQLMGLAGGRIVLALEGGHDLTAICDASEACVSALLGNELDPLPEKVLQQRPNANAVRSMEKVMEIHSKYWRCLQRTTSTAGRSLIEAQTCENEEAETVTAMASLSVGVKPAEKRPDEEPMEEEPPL
Experimental: as §1, §2

HDAC1 = HDAC1 (Homo sapiens, UniProt Q13547); assay: HDAC 1 fluorogenic assay kit
Sequence of HDAC1 (Q13547 whole entry): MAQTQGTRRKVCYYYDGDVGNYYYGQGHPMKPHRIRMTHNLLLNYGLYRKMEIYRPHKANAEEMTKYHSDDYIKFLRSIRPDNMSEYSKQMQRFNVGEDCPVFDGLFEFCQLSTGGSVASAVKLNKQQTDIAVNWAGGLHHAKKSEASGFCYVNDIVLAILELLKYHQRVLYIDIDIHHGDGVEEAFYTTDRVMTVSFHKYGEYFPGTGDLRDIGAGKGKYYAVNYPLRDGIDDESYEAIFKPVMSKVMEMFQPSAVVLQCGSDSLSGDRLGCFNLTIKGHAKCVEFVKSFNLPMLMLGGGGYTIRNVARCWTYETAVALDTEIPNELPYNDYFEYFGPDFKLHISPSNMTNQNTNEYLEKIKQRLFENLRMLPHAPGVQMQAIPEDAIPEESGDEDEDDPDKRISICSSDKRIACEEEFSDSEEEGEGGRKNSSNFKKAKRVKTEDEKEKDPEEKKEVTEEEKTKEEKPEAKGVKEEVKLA
Experimental: as §1, §2

Sequence of HDAC 9 (Q9UKV0 whole entry): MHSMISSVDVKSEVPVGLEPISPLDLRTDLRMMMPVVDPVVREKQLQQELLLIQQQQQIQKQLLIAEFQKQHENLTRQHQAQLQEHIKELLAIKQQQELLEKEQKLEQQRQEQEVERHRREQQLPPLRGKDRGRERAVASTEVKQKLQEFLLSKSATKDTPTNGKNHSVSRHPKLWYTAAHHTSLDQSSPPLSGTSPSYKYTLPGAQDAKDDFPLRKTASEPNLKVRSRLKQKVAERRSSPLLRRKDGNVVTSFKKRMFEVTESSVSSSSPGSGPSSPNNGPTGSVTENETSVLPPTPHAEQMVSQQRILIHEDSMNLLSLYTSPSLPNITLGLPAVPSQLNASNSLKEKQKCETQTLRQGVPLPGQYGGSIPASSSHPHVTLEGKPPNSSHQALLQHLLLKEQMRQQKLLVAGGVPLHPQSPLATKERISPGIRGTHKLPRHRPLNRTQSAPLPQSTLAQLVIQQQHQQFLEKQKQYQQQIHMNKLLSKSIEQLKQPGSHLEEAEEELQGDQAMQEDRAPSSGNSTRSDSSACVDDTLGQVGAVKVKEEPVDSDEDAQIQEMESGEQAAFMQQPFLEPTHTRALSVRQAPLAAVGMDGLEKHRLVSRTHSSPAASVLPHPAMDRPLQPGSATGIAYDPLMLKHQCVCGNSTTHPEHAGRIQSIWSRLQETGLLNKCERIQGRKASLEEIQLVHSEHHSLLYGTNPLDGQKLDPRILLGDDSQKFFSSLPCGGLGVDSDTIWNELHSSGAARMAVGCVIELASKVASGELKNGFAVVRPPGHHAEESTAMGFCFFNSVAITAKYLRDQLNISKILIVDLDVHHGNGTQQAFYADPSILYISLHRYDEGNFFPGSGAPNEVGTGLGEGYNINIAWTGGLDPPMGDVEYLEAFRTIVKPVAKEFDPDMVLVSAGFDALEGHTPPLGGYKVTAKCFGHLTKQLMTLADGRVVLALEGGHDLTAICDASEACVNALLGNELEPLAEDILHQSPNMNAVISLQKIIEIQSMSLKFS

| Structure (SMILES) | HDAC 9 activity, % of water-treated controls (HDAC 9; 5 ug/ml) | HDAC 9 activity, % of water-treated controls (HDAC 9; 25 ug/ml) | HDAC 9 activity, % of water-treated controls (HDAC 9; 50 ug/ml) | HDAC 9 activity, % of water-treated controls (HDAC 9; 100 ug/ml) | HDAC 9 activity, % of water-treated controls (HDAC 9; 200 ug/ml) | HDAC 8 activity, % of water-treated controls (HDAC 8; 5 ug/ml) | HDAC 8 activity, % of water-treated controls (HDAC 8; 25 ug/ml) | HDAC 8 activity, % of water-treated controls (HDAC 8; 50 ug/ml) | HDAC 8 activity, % of water-treated controls (HDAC 8; 100 ug/ml) | HDAC 8 activity, % of water-treated controls (HDAC 8; 200 ug/ml) | HDAC 5 activity, % of water-treated controls (HDAC 5; 25 ug/ml) | HDAC 5 activity, % of water-treated controls (HDAC 5; 50 ug/ml) | HDAC 5 activity, % of water-treated controls (HDAC 5; 100 ug/ml) | HDAC 5 activity, % of water-treated controls (HDAC 5; 200 ug/ml) | HDAC 7 activity, % of water-treated controls (HDAC7; 50 ug/ml) | HDAC 7 activity, % of water-treated controls (HDAC7; 100 ug/ml) | HDAC 7 activity, % of water-treated controls (HDAC7; 200 ug/ml) | HDAC 10 activity, % of water-treated controls (HDAC10; 50 ug/ml) | HDAC 10 activity, % of water-treated controls (HDAC10; 100 ug/ml) | HDAC 10 activity, % of water-treated controls (HDAC10; 200 ug/ml) | also measured |
| --- | --- | --- | --- | --- | --- | --- | --- | --- | --- | --- | --- | --- | --- | --- | --- | --- | --- | --- | --- | --- | --- |
| CCCC(=O)N[C@@H](CC(C)C)C(=O)[O-].CCCC(=O)N[C@@H](CC(C)C)C(=O)[O-].[Zn+2] [Zn di-(n-butyryl leucinate), Zinc di-(n-butyryl leucinate)] | 15% | 49% | 44% | 30% | 22% | 7% | 16% | 16% | 16% | 14% | 128% | 91% | 50% | 26% | 11% | 9% | 9% | 10% | 8% | 6% | FABP-3 IC50 (FABP-3): 630.9 µg/mL; HDAC 7 activity, % of water-treated controls (HDAC7; 5 ug/ml): 41%; HDAC 7 activity, % of water-treated controls (HDAC7; 25 ug/ml): 18%; HDAC 10 activity, % of water-treated controls (HDAC10; 5 ug/ml): 21%; HDAC 10 activity, % of water-treated controls (HDAC10; 25 ug/ml): 13% |
| CCCC(=O)[O-].[Na+] [Sodium butyrate, reference compound] | – | – | 55% | 53% | 57% | – | – | 25% | 20% | 20% | – | 38% | 26% | 15% | 96% | 94% | 87% | 100% | 103% | 93% | HDAC 9 activity, % of water-treated controls (HDAC 9; 400 ug/ml): 58%; HDAC 4 activity, % of water-treated controls (HDAC 4; 25 ug/ml): 93%; HDAC 4 activity, % of water-treated controls (HDAC 4; 50 ug/ml): 96%; HDAC 4 activity, % of water-treated controls (HDAC 4; 100 ug/ml): 96%; HDAC 8 activity, % of water-treated controls (HDAC 8; 400 ug/ml): 14%; HDAC 5 activity, % of water-treated controls (HDAC 5; 400 ug/ml): 11%; HDAC 7 activity, % of water-treated controls (HDAC7; 400 ug/ml): 91%; HDAC 1 activity, % of water-treated controls (HDAC1; 50 ug/ml): 109%; HDAC 1 activity, % of water-treated controls (HDAC1; 100 ug/ml): 46%; HDAC 1 activity, % of water-treated controls (HDAC1; 200 ug/ml): 39%; HDAC 1 activity, % of water-treated controls (HDAC1; 400 ug/ml): 38%; HDAC 10 activity, % of water-treated controls (HDAC10; 400 ug/ml): 61% |
| CCCC(=O)NCCCCC(NC(=O)CCC)C(=O)[O-].CCCC(=O)NCCCCC(NC(=O)CCC)C(=O)[O-].[Ca+2] (stereo not shown) [Ca di-(di-n-butyryl lysinate), calcium di-(di-n-butyryl lysinate)] | 212% | 178% | 242% | 289% | 258% | 91% | 148% | 174% | 155% | 111% | 128% | 123% | 117% | 88% | 99% | 99% | 97% | 103% | 104% | 90% | HDAC 5 activity, % of water-treated controls (HDAC 5; 5 ug/ml): 144%; FABP-3 IC50 (FABP-3): 188.6 µg/mL; HDAC 7 activity, % of water-treated controls (HDAC7; 25 ug/ml): 101%; HDAC 1 activity, % of water-treated controls (HDAC1; 25 ug/ml): 80%; HDAC 1 activity, % of water-treated controls (HDAC1; 50 ug/ml): 89%; HDAC 1 activity, % of water-treated controls (HDAC1; 100 ug/ml): 135%; HDAC 10 activity, % of water-treated controls (HDAC10; 25 ug/ml): 105% |
